Data set [1] deals with neonate rat cardiomyocyte cells. Kind of data set: Hypoxia/ischemia in neonatal rat cardiomyocyte cultures, LDH release. Format: cell-based. To be noted: 30, 100 and 300 nm compound vs 1 μM TPEN; 150 min ischemia then reoxygenation. As to the method: Rat hearts (1-2 days old) were sterilely removed and bathed three times in Ca^2+- and Mg^2+-free PBS to remove excess blood cells. The hearts were minced to small fragments and then agitated in a proteolytic enzyme-RDB solution prepared from a fig tree extract as described previously (Brik et al., 1990; Shneyvays et al., 2001). The RDB was diluted 1:200 in PBS at 25° C. for a few cycles of 10 min each. The supernatant suspension containing dissociated cells, to which medium containing 10% horse serum was added, was centrifuged at 500 g for 5 min. After centrifugation, the supernatant phase was discarded, and cells were resuspended in Dulbecco's modified Eagle medium supplemented with 10% heat-inactivated horse serum and 0.5% chick embryo extract. Cell suspensions were diluted to 1×10^6 cells/ml, and 300 μl was placed in 24 well plates (4 plates) collagen/gelatin-coated plastic culture dishes. Cultures were incubated in a humidified atmosphere of 5% CO2 and 95% air at 37° C. […] The growth medium was replaced every 3 days. The experiments were performed in vitro on these cardiomyocyte cultures after 3 to 5 days. […]
LDH activity was determined using LDH-L kit (Thermo Trace, Melbourne, Australia) within the cardiac cell medium (PBS). […] LDH enzymatic activity was measured in a spectrophotometer at a wavelength of 340 nm at 30° C. […]

The subject of the next data set is PC12 cells. Kind of data set: PC12 ischemic model (oxygen and glucose deprivation), cell death by LDH measurement. Format: cell-based. To be noted: for protection percentile: protection from cell death, FIG. 6B: identical for both compounds. As to the method: PC12 cells were grown in 25 cm^2 flasks in Dulbecco's modified Eagles Medium (DMEM), supplemented with 7% fetal bovine serum (FBS), 7% horse serum, […] penicillin and 100 μg/ml streptomycin. Cells were grown in humidified incubator 5% CO2, 95% air at 37° C. The medium was replaced every 2 days, and upon 70% confluence, the cells were counted and seeded for the ischemia experiments.
Approximately 1×10^6 PC12 cells/well were cultured and exposed to ischemia (oxygen and glucose deprivation=OGD) for 4.5 hr. Prior to the exposure, the growth medium was replaced with glucose-free DMEM (1 ml/well). Ischemia was performed in a closed chamber by replacement of air with 95% nitrogen/5% CO2.
Ischemic stress injury was characterized by lactate dehydrogenase (LDH) released from cells. After 4.5 hr of ischemia, a 50 μl sample of supernatant was taken from each well for LDH measurement. At the end of the ischemic insult (after 4.5 hr), glucose (at final concentration of 4.5 g/L by adding 10 μl from stock solution of 450 mg/ml per well (1 ml)) was added to the plates which underwent ischemia. The plates were then transferred to a humidified incubator and exposed to 95% air/5% CO2 at 37° C. for additional 18 hr of reoxygenation. DMEM supernatant samples (25 μl/well) were collected from each well for LDH measurements. The samples were centrifuged at 3500 rpm for 5 min, and 5 μl aliquots of supernatant was taken for LDH measurement.
For every experiment, a duplicate plate was prepared as a control study under normoxia. Cells were kept in a humidified incubator (5% CO2 and 95% air at 37° C.) in cell culture complete medium at a volume of 1 ml for 18 hr, and the same compounds were added with the same concentrations. Supernatant was collected for LDH measurement as indicated in the LDH activity measurement section below. Afterwards (at the end of the reoxygenation phase), the plates were frozen (at −70° C. for 30 min) and thawed once. 25 μl/well sample was collected and the samples were centrifuged at 3500 rpm for 5 min and then taken for LDH measurement (total).
LDH activity was determined using LDH-L kit (Pointe Scientific Inc., Michigan, USA) in the PC12 cell medium. Medium samples (5 μl) were collected at the end of the ischemic insult (after 4.5 hr) and after the reoxygenation period. In parallel, samples from the plates exposed to normoxia were collected. LDH enzymatic activity was measured in a spectrophotometer at a wavelength of 340 nm at 37° C. Data analysis was performed as follows: [OD (cycle 3)−OD (cycle 1)experiment]−[OD(3)−OD(1) control])/[OD(3)−OD(1) total]×100, and presented as percentage of total cell death.
One day before the experiment, 12-well plates were coated with 200 μg/ml type I rat tail collagen (BD Biosciences, Bedford, Mass.) and were further sterilized under UV. 1×10^6 PC12 undifferentiated cells/well were seeded on the plates and allowed to adhere overnight under regular conditions (DMEM medium high glucose 4.5 mg/ml, 5% CO2 and 95% air at 37° C.). Each experiment included 4 plates, two for normoxia and two for ischemia which underwent the same following treatment for all 4 plates.
A half hour before the onset of the ischemic insult, the antioxidant Tempol (4-hydroxy-2,2,6,6-tetramethylpiperidine-1-oxyl) (Sigma, St. Louis, Mo.) at a concentration of 0.5 mM (10 μl/well taken from a 8.6 mg/ml stock solution) or TPEN at a concentration of 3 μM and 10 μM were added to the plates. Before the experiments, the medium was replaced with DMEM glucose free medium at 1 ml volume/well. TPEN or 10 μl Tempol were again added to the appropriate wells and was maintained throughout all experiments.
Thereafter, the plates were introduced into a device inducing ischemia atmosphere with 95% nitrogen and 5% CO2 for 4.5 hr. Oxygen level was monitored online by a digital oxygen monitor showing up to 1%. At the end of OGD, 25 μl from each well was collected into 0.5 ml tubes for the LDH assay. […]

Data set [2] concerns model of ischemia/reperfusion in the CD rat. Kind of data set: Rat model of ischemia/reperfusion, infarct analysis (Phase B). Type of data set: in vivo. To be noted: positive control 5000 IU/kg bolus intravenous injection. As to the method:
This study was conducted to evaluate the effects of the Compound #6 on cardiac function, infarct size, and Troponin I levels in a model of ischemia/reperfusion in the CD® (CR1CD® (SD)) rat. Phase A was conducted for toxicity evaluation purposes. In Phase B (the efficacy phase), two treatment groups of eight male rats were administered Compound #6 at dose levels of 0.2 and 2 mg/kg via intravenous infusion following myocardial infarction. The 2 mg/kg dose of Compound #6 was administered intravenously via a slow infusion starting 3 to 14 minutes prior to reperfusion and continuing for 20 minutes to 20 minutes and 32 seconds, which was approximately 6 to 17 minutes after reperfusion (depending on the infusion start time). The 0.2 mg/kg dose of Compound #6 was administered intravenously via a slow infusion starting 10 minutes prior to reperfusion and continuing for 30 minutes to 30 minutes and 30 seconds, which was approximately 20 minutes after reperfusion.
The animals were placed on mechanical ventilation and […]. Once anesthetized, the animal was placed in a right lateral recumbency, an arterial catheter or polyethylene tube was placed in the carotid artery for monitoring blood pressure and a thoracotomy was performed. The left coronary artery (LCA) was identified. A ligature was placed around the LCA and the vessel was ligated. The LCA was maintained occluded for 29 to 43 minutes. Occlusion of the vessel was verified via blanching of the heart and via ST interval changes. At the end of the occlusion period, the knot was loosened leaving the ligature in place, and the vessel was allowed to reperfuse for 3 hours 27 minutes to 4 hours 51 minutes. Following infarct, a chest tube was placed, the deep and superficial muscle layers were sutured at the surgical incision, and the skin was closed with staples. The chest tube was removed after spontaneous respiration was established. In Phase A, the animals were recovered from anesthesia and evaluated for 4 days. In Phase B, animals were maintained under anesthesia for 3 hours 27 minutes to 4 hours 51 minutes prior to being submitted to necropsy.
(§1) In Phase B, Compound #6 was administered once on Day 0 via intravenous infusion at dose levels of 0.2 and 2 mg/kg. The doses were administered at a dose volume of 1 mL/kg (0.05 [2 mg/kg] or 0.033 [0.2 mg/kg] mL/kg/minute). Two control groups received the vehicle (saline) or the vehicle for Compound #6 (10% (w/v) 2-hydroxypropyl-beta-cyclodextrin and 100 mM sodium chloride in deionized water) in the same manner as the 2 mg/kg treated group. The vehicles and 2 mg/kg Compound #6 were administered intravenously via a slow infusion starting 3 to 14 minutes prior to reperfusion and continuing for 20 minutes to 20 minutes and 32 seconds, which was approximately 6 to 17 minutes after reperfusion (depending on the infusion start time). The 0.2 mg/kg Compound #6 was administered intravenously via a slow infusion starting 10 minutes prior to reperfusion and continuing for 30 minutes to 30 minutes and 30 seconds, which was approximately 20 minutes after reperfusion. The positive control article, Erythropoietin, was administered at 5000 IU/kg via a bolus intravenous injection. The positive control article dose was administered at a dose volume of 2.5 mL/kg. The positive control was administered via a 3 to 60 second injection at 5 minutes prior to reperfusion.
After LAD reperfusion (4 hours), the animals were euthanized by an intraperitoneal injection of sodium pentobarbital followed by exsanguination via severing the abdominal vena cava. The heart was flushed with heparinized Lactated Ringers Solution (LRS) until clear of blood and the LAD was tied off using the same ligature used to occlude the vessel and Evan Blue dye was injected. The heart was weighed and breadloafed (4-5 sections per animal). […]

For data set [3] the test system is unchanged. The data set can be described thus: Rat model of ischemia/reperfusion, cardiovascular monitoring (blood pressure, heart rate; Phase B). Type of data set: in vivo. To be noted: positive control 5000 IU/kg bolus; within 5-10 minutes of reperfusion. The protocol:
The animals in Phase B were monitored for selected cardiovascular endpoints from at least 15 minutes prior to acute myocardial infarction until at approximately 1 hour post reperfusion. Blood samples for the evaluation of Troponin I were collected from all surviving Phase B animals prior to coronary artery occlusion and at termination. At study termination, the Phase B animals were submitted to necropsy for limited necropsy examinations and infarct analysis.
as §1
In Phase B, animals were anesthetized for monitoring of selected cardiovascular parameters. For experimentation, the blood pressure catheter implanted in the carotid artery was attached to an external transducer and data acquisition was started. Blood pressure (systolic, diastolic, and mean arterial) and heart rate (derived from blood pressure) were monitored from at least 15 minutes prior to acute myocardial infarction (AMI) until at least 1 hour after reperfusion. Individual animal cardiovascular data tables are not reported but are maintained in the study file.

This is an account of results in patent US20140228407A1, “TETRA-PYRIDINE COMPOUNDS AND COMPOSITION FOR PROTECTING CELLS, TISSUES AND ORGANS AGAINST ISCHEMIA-REPERFUSION INJURY” (YISSUM RESEARCH DEVELOPMENT COMPANY OF THE HEBREW …, priority 2011, published 2014).

Marks after values point to notes of the source that are not given here.

Take `c1c[nH]c(CN(CCN(Cc2ncc[nH]2)Cc2ncc[nH]2)Cc2ncc[nH]2)n1` [Compound #4]: the “protective effect against hypoxic insult (LDH release) compared with TPEN, FIG. 1A” value in data set [1] was “only slightly more effective than TPEN”.

For `c1ccc(CN(CCN(Cc2ccccn2)Cc2ccccn2)Cc2ccccn2)nc1` [TPEN, N,N,N′,N′-tetrakis-(2-pyridylmethyl)-ethylenediamine, reference compound], the “reducing death of PC12 cells subjected to ischemia (LDH), FIG. 2” value in the data set on PC12 cells (10 μM, 4.5 hours ischemia) is listed as “effective”. Further, the “reducing death of PC12 cells, comparison vs. Tempol, FIG. 2” value in the data set with PC12 cells (TPEN 10 μM vs Tempol 0.5 mM, 4.5 hours ischemia) is on record as “significantly effective vs. Tempol”. Also, the entries for the “protection percentile: protection from cell death, FIG. 6B” value with PC12 cells (first of two selected concentrations (not given)) and with PC12 cells (second of two selected concentrations (not given)) were 7% and 19%, respectively.

Turning to “EPO: positive control article, erythropoietin [reference compound]”, the “cardiac damage compared to saline control animals, in words” value in data set [2] is on record as “significantly less cardiac damage”. Further, the “Infarct/AAR (%) Mean” value in data set [2] (4 hour reperfusion, rat) is reported as 22^b %. Besides, in data set [2] (rat), the “Infarct/LV (%) Mean” value is listed as 8%. Further, the “mean arterial pressures after reperfusion” value in data set [3] is on record as “increased”.
